Measured values: ChEMBL document CHEMBL1133604, “1-imidazolyl(alkyl)-substituted di- and tetrahydroquinolines and analogues: syntheses and evaluation of dual inhibitors of thromboxane A(2) synthase and aromatase” (J Med Chem, 2000)
The source made the active and inactive calls. The calls are words filed in the database; no cut-off is given here.

Experiments:
[1] = molecular target: T1, Steroid 17-alpha-hydroxylase/17,20 lyase (Rattus norvegicus, UniProt P11715)
T1 sequence (P11715 whole entry): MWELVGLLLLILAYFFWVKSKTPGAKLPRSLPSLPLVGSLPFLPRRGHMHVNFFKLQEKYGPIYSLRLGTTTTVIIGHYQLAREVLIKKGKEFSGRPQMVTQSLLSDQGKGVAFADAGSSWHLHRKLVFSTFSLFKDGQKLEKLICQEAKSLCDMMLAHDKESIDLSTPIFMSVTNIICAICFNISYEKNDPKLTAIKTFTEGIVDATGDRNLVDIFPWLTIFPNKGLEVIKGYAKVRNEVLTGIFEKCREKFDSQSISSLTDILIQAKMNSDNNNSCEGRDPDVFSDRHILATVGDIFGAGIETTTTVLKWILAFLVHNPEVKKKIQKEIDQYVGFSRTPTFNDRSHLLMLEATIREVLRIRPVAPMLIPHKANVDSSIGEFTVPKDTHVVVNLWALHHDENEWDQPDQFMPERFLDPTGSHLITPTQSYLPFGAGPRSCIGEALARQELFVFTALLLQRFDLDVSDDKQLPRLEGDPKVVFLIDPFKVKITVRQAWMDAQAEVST

Thromboxane-A synthase [2] = molecular target: T2, Thromboxane-A synthase (Homo sapiens, UniProt P24557); type: tissue-based, Blood
T2 sequence (P24557 whole entry): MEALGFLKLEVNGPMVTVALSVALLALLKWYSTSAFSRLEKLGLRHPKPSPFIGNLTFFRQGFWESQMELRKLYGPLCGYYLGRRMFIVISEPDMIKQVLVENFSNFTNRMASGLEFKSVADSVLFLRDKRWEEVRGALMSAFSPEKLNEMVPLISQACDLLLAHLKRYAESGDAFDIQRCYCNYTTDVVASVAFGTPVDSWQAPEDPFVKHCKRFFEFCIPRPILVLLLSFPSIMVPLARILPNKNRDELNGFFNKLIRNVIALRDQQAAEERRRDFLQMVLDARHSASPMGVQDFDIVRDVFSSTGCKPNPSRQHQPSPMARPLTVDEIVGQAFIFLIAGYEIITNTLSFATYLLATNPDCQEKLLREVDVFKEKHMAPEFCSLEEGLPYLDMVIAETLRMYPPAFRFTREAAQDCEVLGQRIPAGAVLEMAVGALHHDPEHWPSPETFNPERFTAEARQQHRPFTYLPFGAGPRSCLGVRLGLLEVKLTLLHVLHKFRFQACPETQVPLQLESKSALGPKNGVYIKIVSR

Thromboxane-A synthase [3] = molecular target: T2, Thromboxane-A synthase
Bos taurus [4] = organism: Bos taurus
Bos taurus [5] = organism: Bos taurus; remark: listed apart in the source
cells = type: functional; conditions: Bos taurus
[6] = molecular target: T1, Steroid 17-alpha-hydroxylase/17,20 lyase; remark: listed apart in the source

Row | Compound | inhibition at 125 µM [1] [%] | IC50 (Thromboxane-A synthase [2]) [nM] | other results
1 | C1=C(Cn2ccnc2)c2cccnc2CC1 | 69 | 1500 | 
2 | C(/Cn1ccnc1)=C1\CCCc2occc21 |  | 4100 | 
3 | O=C(OC1CCCc2ncccc21)n1ccnc1 (stereo unspecified) |  |  | IC50 (Thromboxane-A synthase [3]): 1600 nM
4 | c1cn(CCC2CCCc3occc32)cn1 (stereo unspecified) |  | 1010 | 
5 | c1cn(CCC2CCCc3sccc32)cn1 (stereo unspecified) |  | 1230 | 
6 | C1=C(CCCn2ccnc2)c2cccnc2CC1 | 79 | 680 | 
7 | c1cc(CCn2ccnc2)c2cccnc2c1 | 22 | 1200 | 
8 | C(/Cn1ccnc1)=C1/CCCc2occc21 |  | 3550 | 
9 | C(/Cn1ccnc1)=C1/CCCc2sccc21 |  | 1700 | 
10 | C1=C(CCn2ccnc2)c2cccnc2CC1 | 21 | 290 | NI (Bos taurus [4]): inactive; NI (Bos taurus [5]): inactive; IC50 (cells): 173 nM
11 | c1cnc2c(c1)C(CCCn1ccnc1)CCC2 (stereo unspecified) | 59 | 2300 | 

Further lines, with some results ahead:

Row | inhibition at 125 µM [1] [%] | IC50 (Thromboxane-A synthase [2]) [nM] | Compound | other results
12 | 11 | 2000 | c1cnc2c(c1)C(Cn1ccnc1)CCC2 (stereo unspecified) | 
13 | > 80 | 3400 | c1ccc2c(c1)CCCC2CCn1ccnc1 (stereo unspecified) | IC50 [6]: 20000 nM
14 | 14 |  | c1cnc2c(c1)C(n1ccnc1)CCC2 (stereo unspecified) | 
15 |  | 5300 | c1cc(CCn2ccnc2)c2ccsc2c1 | 
16 | 49 | 630 | c1cnc2c(c1)C(CCn1ccnc1)CCC2 (stereo unspecified) | IC50 [6]: 125000 nM
17 |  | 5400 | c1cc2ccc(Cn3ccnc3)cc2cn1 | 
18 |  | 1260 | C(/Cn1ccnc1)=C1\CCCc2sccc21 | 
